Laboratory results published in US6693192B1, “Hypolipidemic and antioxidant morpholine derivatives” (Elpen S.A., priority 1999, dated 2004).
Marks after values point to notes of the source that are not given here.

Test system: hyperlipidemia induced by the Triton WR 1339 in rats
Assay: Hypolipidemic activity: inhibition of hyperlipidemia induced by Triton WR 1339 in rats
Format: in vivo, rat
Settings: male Fischer rats, Triton WR 1339 200 mg/Kg i.p., dose 56 μmol/kg ip, plasma after 24 hours
Protocol: The hypocholesterolemic and hypolipidemic activity of the synthesised compounds was performed by the inhibition of the hyperlipidemia induced by the Triton WR 1339 in rats. Triton WR 1339 as an intraperitoneal (i.p.) injection acts due to induction of HMG-CoA reductase. […] After 24 hours, blood was taken from the celiac aorta and collected to heparinised tubes.

## CC(C)(Sc1cc(C(C)(C)C)c(O)c(C(C)(C)C)c1)Sc1cc(C(C)(C)C)c(O)c(C(C)(C)C)c1 [Probucol]
  Percent decrease compared to controls, LDL (plasma Low Density Lipoprotein): 18^NS %
  Percent decrease compared to controls, TC (plasma Total Cholesterol): 18* %
  Percent decrease compared to controls, TG (plasma Triglyceride): 11^NS %
